Where two headings read alike, the source gives them in different places.
What was measured:
human AR = target: T1, human AR (Homo sapiens, UniProt P10275); assay type: cell-based; conditions: for % residual agonist activity: at 30 μM, 3 nM 11-ketoDHT only = 100%
T1 sequence (P10275 640-920): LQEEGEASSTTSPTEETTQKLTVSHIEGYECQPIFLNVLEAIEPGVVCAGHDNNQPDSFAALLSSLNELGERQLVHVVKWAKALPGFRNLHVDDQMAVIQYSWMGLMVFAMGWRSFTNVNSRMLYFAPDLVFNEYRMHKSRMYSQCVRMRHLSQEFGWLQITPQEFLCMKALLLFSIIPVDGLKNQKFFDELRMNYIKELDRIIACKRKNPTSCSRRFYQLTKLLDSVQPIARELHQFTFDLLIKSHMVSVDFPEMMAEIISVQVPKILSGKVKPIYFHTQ
Experimental: (§1) HEK293 cells (ACC305, DSMZ, Braunschweig, Germany) were cultivated at 37 °C in 5% CO2 in DMEM supplemented with 10% FBS, 2 mM L-glutamine, 1 mM sodium pyruvate, 100 U/mL penicillin, and 100 μg/mL streptomycin. For exposure studies, cells were cultivated in phenol red-free DMEM, supplemented with 1% dextran-coated charcoal-treated FBS.
In the case of the N–C-terminal interaction assay of AR, the ESR1 effector plasmid was replaced by 0.02 μg each of pVP16-AR (1–503) and pM-AR (640–920). Aliquot (0.6 μL) of 1 mg/mL PEI MAX 40K solution was diluted to 25 μL with 150 mM NaCl. The diluted PEI MAX 40K was added to the diluted DNA mixture, and the mixture was incubated at room temperature for 15 min. In parallel, HEK 293 cells were adjusted to 40,000 cells in 200 μL of culture medium per well. The transfection mixture (50 μL) was added to the cell suspension, gently mixed, and pipetted into a well of a 96-well plate. The next day, the transfected cells were treated with chemicals for 24 h before cell lysis with 50 μL per well of passive lysis buffer (Promega). Firefly and Renilla luciferase activities were measured as described previously. Results were normalized for transfection efficiency by dividing firefly luciferase activity by Renilla luciferase activity, measured from the same well. Assays were performed in technical triplicate in each independent experiment. […] Concentration response curves were fitted with nonlinear regression using the formula with a variable slope (four parameters) or the formula with a standard slope (three parameters) of GraphPad Prism 10.4.1 (GraphPad Software, Boston, MA, USA), as indicated in the respective figure legends.
AR N–C-terminal interaction mammalian two-hybrid assays were run in transiently transfected HEK293 cells, which were treated afterward for 24 h with the indicated concentrations of chemicals. […] Data are presented as a mean ± SD fold change (n = 4 independent experiments) with respect to the normalized reporter gene activity of cells treated with 0.1% DMSO only. […] Data are presented as mean ± SD (n = 3 independent experiments) with respect to the normalized reporter gene activity of cells treated with 3 nM 11-ketoDHT only, which was designated as 100%. Curves were fitted with nonlinear regression using the formula with a standard slope (three parameters) of GraphPad Prism 10.4.1.

human ERα (ESR1) = target: T2, human ERα (ESR1) (Homo sapiens, UniProt P03372); test: ERα mammalian one-hybrid reporter gene assay in transiently transfected HEK293 cells; assay type: cell-based; conditions: for E max [FC]: fold change vs 0.1% DMSO, at conc. BPA 10, BPF 10, BPS 30, ZEA 0.1 μM
T2 sequence (P03372 251-595): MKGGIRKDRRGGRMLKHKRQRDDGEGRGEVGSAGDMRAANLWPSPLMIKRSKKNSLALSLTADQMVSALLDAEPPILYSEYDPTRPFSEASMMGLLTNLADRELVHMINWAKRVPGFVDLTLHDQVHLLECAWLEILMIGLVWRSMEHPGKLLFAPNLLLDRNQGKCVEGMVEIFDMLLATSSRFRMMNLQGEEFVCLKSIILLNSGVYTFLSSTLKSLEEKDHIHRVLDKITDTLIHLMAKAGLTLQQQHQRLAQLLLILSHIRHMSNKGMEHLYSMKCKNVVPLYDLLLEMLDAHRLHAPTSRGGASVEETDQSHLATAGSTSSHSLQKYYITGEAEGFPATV
Experimental: as §1
Per well of a 96-well plate, a plasmid DNA mixture consisting of 0.26 μg of pGL4-G5, 0.04 μg of pM-ESR1 (251–495), and 0.005 μg of pGL4.75 [hRluc/CMV] was diluted with 150 mM NaCl to a final volume of 25 μL. […] Aliquot (0.6 μL) of 1 mg/mL PEI MAX 40K solution was diluted to 25 μL with 150 mM NaCl. The diluted PEI MAX 40K was added to the diluted DNA mixture, and the mixture was incubated at room temperature for 15 min. In parallel, HEK 293 cells were adjusted to 40,000 cells in 200 μL of culture medium per well. The transfection mixture (50 μL) was added to the cell suspension, gently mixed, and pipetted into a well of a 96-well plate. The next day, the transfected cells were treated with chemicals for 24 h before cell lysis with 50 μL per well of passive lysis buffer (Promega). Firefly and Renilla luciferase activities were measured as described previously. Results were normalized for transfection efficiency by dividing firefly luciferase activity by Renilla luciferase activity, measured from the same well. Assays were performed in technical triplicate in each independent experiment. […] Concentration response curves were fitted with nonlinear regression using the formula with a variable slope (four parameters) or the formula with a standard slope (three parameters) of GraphPad Prism 10.4.1 (GraphPad Software, Boston, MA, USA), as indicated in the respective figure legends.
ERα mammalian one-hybrid assays were executed in transiently transfected HEK293 cells, which were treated afterward for 24 h with the indicated concentrations of chemicals. Data are presented as a mean ± SD fold change (n ≥ 3 independent experiments) with respect to the normalized reporter gene activity of cells treated with 0.1% DMSO only.

[1] = HEK293, 24 h treatment, four-parameter fit, n ≥ 3, read-out: EC50 mean (activating ERα)

## C[C@]12CCC(=O)C[C@@H]1CC[C@H]1[C@@H]3CC[C@H](O)[C@@]3(C)CC(=O)[C@@H]12 [11-ketoDHT, 11-Ketodihydrotestosterone, reference compound]
Human AR; agonist mode, HEK293, 24 h, n = 4, 95% CI 2.3–4.7 nM, read-out: EC50 (induction of AR N–C interaction)
  EC50: 3.3 nM

## CC(C)(c1ccc(O)cc1)c1ccc(O)cc1 [Bisphenol A]
Human AR
  % residual agonist activity: 3.1%
Human AR; read-out: IC50 mean (inhibiting AR)
  IC50: 980 nM
Human ERα (ESR1)
  E max [FC]: 19.6 FC

## Oc1ccc(Cc2ccc(O)cc2)cc1 [Bisphenol F]
Human ERα (ESR1); [1]
  EC50: 2100 nM
Human ERα (ESR1)
  E max [FC]: 56.1 FC

## O=S(=O)(c1ccc(O)cc1)c1ccc(O)cc1 [Bisphenol S]
Human ERα (ESR1); [1]
  EC50: 5200 nM
Human ERα (ESR1)
  E max [FC]: 48.5 FC

## C[C@H]1CCCC(=O)CCC/C=C/c2cc(O)cc(O)c2C(=O)O1 [Zearalenone]
Human AR
  IC50: 3700 nM
  % residual agonist activity: 1.5%
Human ERα (ESR1)
  EC50: 4.9 nM
  E max [FC]: 89.9 FC
Human ERα (ESR1); ratio of EC50 values, vs BPA
  potency fold higher than BPA (ERα activation): 120 fold
Human ERα (ESR1); ratio of EC50 values, vs BPF
  potency fold higher than BPF (ERα activation): 430 fold
Human ERα (ESR1); ratio of EC50 values, vs BPS
  potency fold higher than BPS (ERα activation): 1060 fold
